For one data set, the system named is adenovirus (AdV). The data set can be described thus: Human clinical study on treatment of AdV infectious disease: viral load of AdV in plasma by real-time qPCR. The class given is in vivo. Conditions: for time for the levels of viral load to reach below the LOD: overall. The procedure:
A human clinical study on the treatment of adenovirus (AdV) infectious disease was conducted according to the following procedure.
Patients aged 2 months or older who have asymptomatic AdV infection or AdV disease, have an underlying immunocompromised state, and have AdV viremia at a high level, including hematopoietic stem cell transplant recipients before the immune reconstitution by the graft cells is achieved, organ transplant recipients on medication with an immunosuppressant, and patients with immunodeficiency syndrome (patients with 10,000 or more copies/ml in a sample, or patients with 1,000 or more copies/ml in two samples while the second viral load is greater than the first viral load).
The brincidofovir (BCV) infusion is a sterile aqueous solution containing 10 mg/mL BCV.
• Product name: Brincidofovir (BCV) • Dosage form: Solution for infusion • Unit dose: 10 mg/mL (1 mL per vial) • Route of administration: Intravenous (IV) infusion • Physical description: Clear, colorless solution in a sterile glass vial • Storage: Refrigerated (2-8° C.) • Dosing: Continuous IV drip infusion administered over a period of 2 hours twice weekly (on Days 1 and 4) 1.1.3 Dose • Cohort 1:0.2 mg/kg (if body weight≥50 kg, 10 mg/dose), twice weekly • Cohort 2:0.3 mg/kg (if body weight≥50 kg, 15 mg/dose), twice weekly • Cohort 3:0.4 mg/kg (if body weight≥50 kg, 20 mg/dose), twice weekly 1.1.4 Drug Administration
The dose of BCV 10 mg/mL solution for infusion is prepared based on the patient's body weight.
Preparation: Using a sterile syringe and needle, transfer 1 mL of IV BCV solution from one vial into a 100-mL glucose 5% IV bag to make a diluted dosing solution. For more than 10 mg/dose, prepare one additional diluted dosing solution in the same procedure mentioned above. Gently invert the bag at least 5 times to mix. Note: No vigorous shaking of the solution in a vial or the diluted dosing solution in a bag.
Administer the appropriate volume of diluted dosing solution based on the patient's body weight. Each dose is administered intravenously at a constant rate over 2 hours. Upon completion of the administration, the IV line is flushed with glucose 5% or dextrose 5% to ensure the IV line has been cleared of all active drug. If required per institutional practice, the flush of glucose 5% or dextrose 5% may be followed by a flush with normal saline. Diluted dosing solution should be prepared at the time of use in principle and should not be prepared the day before.
Subjects 101-12 of cohort 2, and 101-15, 101-18 and 110-06 of cohort 3 took cyclosporine, an immunosuppressive drug, during the treatment period (duration of treatment) of intravenous BCV. Prior PK studies in healthy subjects have shown a significant increase in plasma BCV exposure with concomitant intravenous infusion of BCV and cyclosporine. […] In view of the above, for the above patients taking cyclosporine, any of the doses indicated in 1.1.3 (cohorts 1-3) above is reduced to 60% for administration. Note that when cyclosporine is administered as BID (twice daily) oral or injectable form, the administration is conducted with an interval of 2 hours after the completion of intravenous BCV. In the case of continuous infusion of cyclosporine for 24 hours, no interval is needed.
The study duration is at least 9 weeks, based on a screening period of 1 week, a treatment period of at least 4 weeks, and post-treatment follow-up period of 30 days. In the screening, after informed consent has been obtained from the patients, a screening evaluation is conducted to determine eligibility for the study. On the first day of the first week of the treatment period, patients are assigned a dose based on the applicable cohort (see the section 1.1.3 Cohorts 1-3 above). The duration of treatment is a minimum of 4 weeks and a maximum of 14 weeks, and termination is based on the treatment stopping criteria as described below. […]

Data set [1] can be described thus: Human clinical study: BCV-related adverse events (NCI CTCAE version 5.0). The class given is in vivo. The procedure:
The study duration is at least 9 weeks, based on a screening period of 1 week, a treatment period of at least 4 weeks, and post-treatment follow-up period of 30 days. In the screening, after informed consent has been obtained from the patients, a screening evaluation is conducted to determine eligibility for the study. On the first day of the first week of the treatment period, patients are assigned a dose based on the applicable cohort (see the section 1.1.3 Cohorts 1-3 above). The duration of treatment is a minimum of 4 weeks and a maximum of 14 weeks, and termination is based on the treatment stopping criteria as described below. For patients who, at the physician's discretion, are assessed as being at high risk for AdV infection/recurrence of disease, the treatment period may be extended for up to 10 weeks, even after the 4-week treatment period is completed, if the AdV is not detected by the two most recent consecutive assays with an interval of 3 days at least. All patients are followed up for 30 days after the last dosing. Adverse events is evaluated according to the National Cancer Institute Common Terminology Criteria for Adverse Events (NCI CTCAE) version 5.0 (grade 1-5). Based on the results of the review of safety data from cohort 1, a decision is made whether to initiate cohort 2. Likewise, the decision to initiate cohort 3 is based on the results of the review of safety data from cohort 2. Enrollment in a new cohort is terminated immediately if grade 3 or higher adverse events are observed in more than 25% of all subjects in the previous cohort.

The mark [2] stands for this setting: cohort 1: 0.2 mg/kg IV twice weekly.
Setting [3] is: cohort 2: 0.3 mg/kg IV twice weekly.
The mark [4] stands for this setting: cohort 3: 0.4 mg/kg IV twice weekly.
Setting [5] is: cohort 3: 0.4 mg/kg IV twice weekly, of 10 cases.

Structures are written as SMILES. Entries after “also recorded” stand apart in the source; their conditions may differ.

For the compound `CCCCCCCCCCCCCCCCOCCCOP(=O)(O)CO[C@H](CO)Cn1ccc(N)nc1=O` [BCV, [(2S)-1-(4-amino-2-oxopyrimidin-1-yl)-3-hydroxypropan-2-yl]oxymethyl-(3-hexadecoxypropoxy)phosphinic acid], the “patients in whom the levels of viral load of AdV reached below the LOD” value with adenovirus (AdV) (cohort 1: 0.2 mg/kg (10 mg/dose if body weight ≥50 kg) IV twice weekly, plasma, LOD 25 copies/ml) is “two”; in the data set with adenovirus (AdV) (cohort 2: 0.3 mg/kg (15 mg/dose if body weight ≥50 kg) IV twice weekly, plasma, LOD 25 copies/ml) it was 5 patients. Also, the “cases with relapse among those that reached below the LOD” value in the data set on adenovirus (AdV) (setting [2]) is reported as “One”. Further, the patients who died result in the data set on adenovirus (AdV) (setting [2]) and in the data set with adenovirus (AdV) (setting [3]) was “one” throughout. Also, the “time for the levels of viral load to reach below the LOD” value is recorded as “longer time” with adenovirus (AdV) (cohort 2: 0.3 mg/kg IV twice weekly, the 5 cases) and “shorter time” with adenovirus (AdV) (cohort 3: 0.4 mg/kg IV twice weekly, the 10 cases). In the data set on adenovirus (AdV) (cohort 3: 0.4 mg/kg (20 mg/dose if body weight ≥50 kg) IV twice weekly, plasma, LOD 25 copies/ml, all cases), the “cases in which the levels of viral load of AdV reached below the LOD” value is 10 cases. The relapse or death result in the data set with adenovirus (AdV) (setting [4]) is listed as “No patient relapsed or died”. The “patients whose levels of viral load reached below the LOD within 4 weeks” value in the data set with adenovirus (AdV) (setting [5]) turned out to be 8 patients. In addition, in the data set with adenovirus (AdV) (setting [5]), the “remaining patients whose levels of viral load reached below the LOD at Week 5 and 6” value is reported as 2 patients. Besides, the “time at which the viral load of AdV was reduced to a level below the LOD” value with adenovirus (AdV) (patient 110-05 in cohort 3 (0.4 mg/kg IV twice weekly)) is 3 Week. The “BCV-related adverse event, grade (relatedness)” value in data set [1] (cohort 1 (0.2 mg/kg IV twice weekly), patient 109-01, 0.2 mg/kg) is “elevated aspartate transaminase (AST)—grade 1 (probably); also recorded: elevated alanine transaminase (ALT)—grade 1 (probably); also recorded: elevated lactate dehydrogenase (LDH)—grade 1 (possibly)”; in data set [1] (cohort 1 (0.2 mg/kg IV twice weekly), patient 110-01) it was “diarrhea—grade 2 (possibly)”; in data set [1] (cohort 2 (0.3 mg/kg IV twice weekly), patient 101-09), “diarrhea—grade 3 (possibly)”; in data set [1] (cohort 2 (0.3 mg/kg IV twice weekly), patient 101-14) it was “hypertransaminasemia—grade 3 (possibly)”; in data set [1] (cohort 2 (0.3 mg/kg IV twice weekly), patient 109-03), “nausea—grade 1 (possibly)”; in data set [1] (cohort 3 (0.4 mg/kg IV twice weekly), patient 102-02, 0.4 mg/kg) it was “increased ALT—grade 3 (possibly); also recorded: increased AST—grade 3 (possibly)”. Also, the “BCV-related adverse event, grade (relatedness)” value in data set [1] (cohort 3 (0.4 mg/kg IV twice weekly), patient 109-04, 0.4 mg/kg) is recorded as “feeling of a racing heart—grade 1 (possibly); also recorded: nausea—grade 1 (possibly)”. Also, the “Grade 3 adverse events (number)” value in data set [1] (setting [2]) is recorded as 0; in data set [1] (setting [3]) it was 2; in data set [1] (setting [4]), 1.

These data come from US12544392B2, “Treatment of adenovirus infection or disease associated with adenovirus infection” (SymBio Pharmaceuticals Limited, priority 2023, dated 2026).
